Results on 22 compounds are retold here after US10689377B2 (Mirati Therapeutics, Inc., priority 2017, dated 2020).

Some results are limits rather than exact numbers.

The target of the test is KRas G12C (Homo sapiens, UniProt P01116, G12C). The experiment in a line: Cellular inhibition of KRas G12C measured by Phospho-ERK in NCI-H358 cells. It counts as cell-based. The note with it: pERK(Thr202/Tyr204) normalized with GAPDH, NCI-H358 cells, 3 hours; read-out: IC50. The method, then: Cells were plated in poly-D-Lysine coated 96-well plates at a concentration of 50,000 cells/well and allowed to attach for 8-12 hours. Diluted compounds were then added at a final concentration of 0.5% DMSO. After 3 hours, the medium was removed, 150 μL of 4% formaldehyde was added and the plates were incubated for 20 minutes. The plates were washed with PBS, and permeabilized using 150 μL of ice cold 100% methanol for 10 minutes. Non-specific antibody binding to the plates was blocked using 100 μL Licor Blocking Buffer (Li-Cor Biotechnology, Lincoln Nebr.) for 1 hour at room temperature. Positive control samples and samples lacking cells were parallel processed with test samples as standards.
KRas G12C, sequence (P01116 1-188 isoform P01116-2 G12C): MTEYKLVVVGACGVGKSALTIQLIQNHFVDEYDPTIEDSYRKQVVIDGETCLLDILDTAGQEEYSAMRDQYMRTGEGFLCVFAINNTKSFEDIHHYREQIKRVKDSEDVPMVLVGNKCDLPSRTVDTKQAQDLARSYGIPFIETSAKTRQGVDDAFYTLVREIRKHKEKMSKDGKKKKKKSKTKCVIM
The amount Phospho-ERK was determined using an antibody specific for the phosphorylated form of ERK and compared to the amount of GAPDH. […] The plates were incubated for 2 hours at room temperature. The plates were washed with PBS+0.05% Tween 20.
Secondary antibodies used to visualize primary antibodies were added as follows: Anti-rabbit-680 diluted 1:1000 and Anti-mouse-800 diluted 1:1000 in Licor Block+0.05% Tween 20 and incubated for 1 hour at room temperature. The plates were washed with PBS+0.05% Tween 20. A 100 μL aliquot of PBS was added to each well and the plates were read on a LICOR AERIUS plate reader.
The pERK(Thr202/Tyr204) signal was normalized with the GAPDH signal and percent of DMSO control values were calculated. IC50 values were generated using a 4 parameter fit of the dose response curve. Key: “A”≥0.0001-≤1 μM; “B”>1 μM and ND=not determined.
For orientation: IC50 means the concentration at which inhibition is half-maximal. `CC#CC(=O)N1CCN(c2nc(OC[C@@H]3CCCN3C)nc3c2CCN(c2cccc4cccc(Cl)c24)C3)C[C@@H]1CC#N` [Example 391, 2-((S)-1-(but-2-ynoyl)-4-(7-(8-chloronaphthalen-1-yl)-2-(((S)-1-methylpyrrolidin-2-yl)methoxy)-5,6,7,8-tetrahydropyrido[3,4-d]pyrimidin-4-yl)piperazin-2-yl)acetonitrile]: the IC50 was in the range of 0.1 to 1000 nM.
To `C=CC(=O)N1CCN(c2nc(OCCN3CCC[C@@H](OC)C3)nc3c2CCN(c2cc(O)cc4ccccc24)C3)CC1` [Example 99, (R)-1-(4-(7-(3-hydroxynaphthalen-1-yl)-2-(2-(3-methoxypiperidin-1-yl)ethoxy)-5,6,7,8-tetrahydropyrido[3,4-d]pyrimidin-4-yl)piperazin-1-yl)prop-2-en-1-one] belongs above 1000 nM; to `C=C(F)C(=O)N1CCN(c2nc(OC[C@@H]3CCCN3C)nc3c2CCN(c2cccc4cccc(CC)c24)C3)C[C@@H]1CC#N` [Example 608, 2-[(2S)-4-[7-(8-ethyl-1-naphthyl)-2-[[(2S)-1-methylpyrrolidin-2-yl]methoxy]-6,8-dihydro-5H-pyrido[3,4-d]pyrimidin-4-yl]-1-(2-fluoroprop-2-enoyl)piperazin-2-yl]acetonitrile], 0.1 to 1000 nM.
Take `C=CC(=O)N1CCN(c2nc(OC[C@@H]3CCCN3C)nc3c2CCN(c2cccc4ccc(Cl)cc24)C3)CC1CC#N` (stereo partly drawn) [Example 253, 2-(1-acryloyl-4-(7-(7-chloronaphthalen-1-yl)-2-(((S)-1-methylpyrrolidin-2-yl)methoxy)-5,6,7,8-tetrahydropyrido[3,4-d]pyrimidin-4-yl)piperazin-2-yl)acetonitrile]: the IC50 lay in the range of 0.1 to 1000 nM.
For `C=CC(=O)N1CCN(c2nc(OC[C@@H]3CCCN3C)nc3c2CCN(c2cccc4ccc(Cl)cc24)C3)CC1CC#N` (stereo partly drawn) [Example 286, 2-(1-acryloyl-4-(7-(7-chloronaphthalen-1-yl)-2-(((S)-1-methylpyrrolidin-2-yl)methoxy)-5,6,7,8-tetrahydropyrido[3,4-d]pyrimidin-4-yl)piperazin-2-yl)acetonitrile], the IC50 was 0.1 to 1000 nM.
Turning to `C=CC(=O)N1CCN(c2nc(OCC3CCN(C4CC4)C3)nc3c2CCN(c2cc(O)cc4ccccc24)C3)CC1` (stereo not shown) [Example 190, 1-(4-(2-((1-cyclopropylpyrrolidin-3-yl)methoxy)-7-(3-hydroxynaphthalen-1-yl)-5,6,7,8-tetrahydropyrido[3,4-d]pyrimidin-4-yl)piperazin-1-yl)prop-2-en-1-one], the IC50 fell in the range of 0.1 to 1000 nM.
For `Cc1cccc2cccc(N3CCc4c(nc(OC[C@@H]5CCCN5C)nc4N4CCN(C(=O)/C=C/CN5CCOCC5)[C@@H](CC#N)C4)C3)c12` [Example 460, 2-[(2S)-4-[7-(8-methyl-1-naphthyl)-2-[[(2S)-1-methylpyrrolidin-2-yl]methoxy]-6,8-dihydro-5H-pyrido[3,4-d]pyrimidin-4-yl]-1-[(E)-4-morpholinobut-2-enoyl]piperazin-2-yl]acetonitrile], the concentration for half-maximal inhibition (IC50) lay in the range of 0.1 to 1000 nM.
Take `C=CC(=O)N1CCN(c2nc(OC[C@@H]3CCNC3)nc3c2CCN(c2cc(O)cc4ccccc24)C3)CC1` [Example 146, 1-[4-[7-(3-hydroxy-1-naphthyl)-2-[[(3R)-pyrrolidin-3-yl]methoxy]-6,8-dihydro-5H-pyrido[3,4-d]pyrimidin-4-yl]piperazin-1-yl]prop-2-en-1-one]: the IC50 was above 1000 nM.
For `C=CC(=O)N1CCN(c2nc(OCCN(C)C)nc3c2CCN(c2cc(O)cc4ccccc24)C3)C(CO)C1` (stereo not shown) [Example 53, 1-(4-(2-(2-(dimethylamino)ethoxy)-7-(3-hydroxynaphthalen-1-yl)-5,6,7,8-tetrahydropyrido[3,4-d]pyrimidin-4-yl)-3-(hydroxymethyl)piperazin-1-yl)prop-2-en-1-one], the IC50 was above 1000 nM.
To `C=CC(=O)N1CCN(c2nc(OC(C)CN(C)C)nc3c2CCN(c2cccc4ccccc24)C3)CC1` (stereo not shown) [Example 24, 1-(4-(2-((1-(dimethylamino)propan-2-yl)oxy)-7-(naphthalen-1-yl)-5,6,7,8-tetrahydropyrido[3,4-d]pyrimidin-4-yl)piperazin-1-yl)prop-2-en-1-one] belongs above 1000 nM; to `C=CC(=O)N1CCN(c2nc(OC[C@@H]3CCCN3C)nc3c2CCN(c2nccc4ccccc24)C3)CC1CC#N` (stereo partly drawn) [Example 289, 2-[4-[7-(1-isoquinolyl)-2-[[(2S)-1-methylpyrrolidin-2-yl]methoxy]-6,8-dihydro-5H-pyrido[3,4-d]pyrimidin-4-yl]-1-prop-2-enoyl-piperazin-2-yl]acetonitrile], above 1000 nM; to `C=CC(=O)N1CCN(c2nc(OCCCN3CCOCC3)nc3c2CCN(c2c(C)ccc4[nH]ccc24)C3)CC1` [Example 209, 1-(4-(7-(5-methyl-1H-indol-4-yl)-2-(3-morpholinopropoxy)-5,6,7,8-tetrahydropyrido[3,4-d]pyrimidin-4-yl)piperazin-1-yl)prop-2-en-1-one], above 1000 nM.
As for `C=CC(=O)N1CCN(c2nc(OCCCN3C[C@H]4C[C@@H]3CO4)nc3c2CCN(c2ccccc2C(F)(F)F)C3)CC1CC#N` (stereo partly drawn) [Example 297, 2-[4-[2-[3-[(1R,4R)-2-oxa-5-azabicyclo[2.2.1]heptan-5-yl]propoxy]-7-[2-(trifluoromethyl)phenyl]-6,8-dihydro-5H-pyrido[3,4-d]pyrimidin-4-yl]-1-prop-2-enoyl-piperazin-2-yl]acetonitrile], the IC50 was in the range of 0.1 to 1000 nM.
Take `C=CC(=O)N1CCN(c2nc(OC[C@@H]3CCCN3C)nc3c2CCN(c2cccc(Cl)c2OC)C3)C[C@@H]1CC#N` [Example 422, 2-((S)-1-acryloyl-4-(7-(3-chloro-2-methoxyphenyl)-2-(((S)-1-methylpyrrolidin-2-yl)methoxy)-5,6,7,8-tetrahydropyrido[3,4-d]pyrimidin-4-yl)piperazin-2-yl)acetonitrile]: the IC50 is 0.1 to 1000 nM.
Next, `C=CC(=O)N1CCN(c2nc(OCCCN3C[C@H]4C[C@@H]3CO4)nc3c2CCN(c2ccccc2C(F)(F)F)C3)CC1CC#N` (stereo partly drawn) [Example 280, 2-(4-(2-(3-((1R,4R)-2-oxa-5-azabicyclo[2.2.1]heptan-5-yl)propoxy)-7-(2-(trifluoromethyl)phenyl)-5,6,7,8-tetrahydropyrido [3,4-d]pyrimidin-4-yl)-1-acryloylpiperazin-2-yl)acetonitrile]: 0.1 to 1000 nM; `C=CC(=O)N1CCN(c2nc(OC[C@@H]3CCCN3C)nc3c2CCN(c2cccc4ccc(OC)cc24)C3)CC1CC#N` (stereo partly drawn) [Example 288, 2-[4-[7-(7-methoxy-1-naphthyl)-2-[[(2S)-1-methylpyrrolidin-2-yl]methoxy]-6,8-dihydro-5H-pyrido[3,4-d]pyrimidin-4-yl]-1-prop-2-enoyl-piperazin-2-yl]acetonitrile]: above 1000 nM; `C=CC(=O)N1CCN(c2nc(OC[C@@H]3C[C@@H](OC)CN3C)nc3c2CCN(c2cc(OC)cc4ccccc24)C3)CC1` [Example 356, 1-[4-[2-[[(2S,4R)-4-methoxy-1-methyl-pyrrolidin-2-yl]methoxy]-7-(3-methoxy-1-naphthyl)-6,8-dihydro-5H-pyrido[3,4-d]pyrimidin-4-yl]piperazin-1-yl]prop-2-en-1-one]: above 1000 nM.
Take `C=CC(=O)N1CCN(c2nc(OC[C@@H]3CCCN3C)nc3c2CCN(c2cccc(F)c2OC)C3)CC1CC#N` (stereo partly drawn) [Example 308, 2-(1-acryloyl-4-(7-(3-fluoro-2-methoxyphenyl)-2-(((S)-1-methylpyrrolidin-2-yl)methoxy)-5,6,7,8-tetrahydropyrido[3,4-d]pyrimidin-4-yl)piperazin-2-yl)acetonitrile]: the IC50 was 0.1 to 1000 nM.
As for `Cc1cccc(N2CCc3c(nc(OC[C@@H]4CCCN4C)nc3N3CCN(C(=O)/C=C/CN4CCC(F)C4)[C@@H](CC#N)C3)C2)c1C` (stereo partly drawn) [Example 476, 2-[(2S)-4-[7-(2,3-dimethylphenyl)-2-[[(2S)-1-methylpyrrolidin-2-yl]methoxy]-6,8-dihydro-5H-pyrido[3,4-d]pyrimidin-4-yl]-1-[(E)-4-(3-fluoropyrrolidin-1-yl)but-2-enoyl]piperazin-2-yl]acetonitrile], the IC50 was in the range of 0.1 to 1000 nM.
For the compound `Cc1cccc2cccc(N3CCc4c(nc(OC[C@H]5C[C@@H](F)CN5C)nc4N4CCN(C(=O)/C=C/CO)[C@@H](CC#N)C4)C3)c12` [Example 522, 2-((S)-4-(2-(((2R,4R)-4-fluoro-1-methylpyrrolidin-2-yl)methoxy)-7-(8-methylnaphthalen-1-yl)-5,6,7,8-tetrahydropyrido[3,4-d]pyrimidin-4-yl)-1-((E)-4-hydroxybut-2-enoyl)piperazin-2-yl)acetonitrile], the IC50 was 0.1 to 1000 nM.
`C=CC(=O)N1CCN(c2nc(OCCNC(C)=O)nc3c2CCN(c2cc(O)cc4ccccc24)C3)CC1` [Example 59, N-(2-((4-(4-acryloylpiperazin-1-yl)-7-(3-hydroxynaphthalen-1-yl)-5,6,7,8-tetrahydropyrido[3,4-d]pyrimidin-2-yl)oxy)ethyl)acetamide]: the IC50 was above 1000 nM.
To `C=CC(=O)N1CCN(c2nc(OC[C@@H]3CCC(C)(C)N3C)nc3c2CCN(c2cccc4ccccc24)C3)CC1CC#N` (stereo partly drawn) [Example 301, 2-[4-[7-(1-naphthyl)-2-[[(2S)-1,5,5-trimethylpyrrolidin-2-yl]methoxy]-6,8-dihydro-5H-pyrido[3,4-d]pyrimidin-4-yl]-1-prop-2-enoyl-piperazin-2-yl]acetonitrile] belongs 0.1 to 1000 nM.
